Test results: patent US12173018B2, “Penicillin-binding protein inhibitors” (priority 2018, dated 2024)
Converted amounts (≈) assume the structure as drawn. Structures can show the parent of a compound that is named as a salt.

Experiments:
[1] = tested on: E. coli DH5α empty pLBII vector control strain; assay: microbe, parasite or virus in culture; format: cell-based, Escherichia coli; conditions: Escherichia coli, read-out: Microbiological Activity (MIC in mg/L), E. coli DH5α/pLBII
Method: (§1) Briefly, cryo-preserved bacterial cultures of challenge strains are streaked for isolation on appropriate agar medium, in this case Mueller Hinton II agar. Following incubation to allow growth of the colonies, plates are sealed with parafilm and stored refrigerated for up to two weeks. For preparation of assay inoculum and to ensure low variability, at least 5 colonies are picked from the agar plates with an inoculating loop and aseptically transferred to a culture tube containing 3 mL of Mueller-Hinton Broth (supplemented with divalent cations to required levels based on Manufacturers' certification). The broth culture is grown for 3-5 hours at 37° C. with shaking at 200 rpm. Meanwhile, 2-fold serial dilutions of test compounds are conducted in a 96 well plate with a final volume of 75 μL per well at 2-fold the final desired concentration. After the dilution plates are set up the growing cultures are then diluted in a cuvette containing MH II broth and the optical density is measured at 600 nm. The Inoculum is diluted such that 75 μL of this culture in Mueller-Hinton Broth results in a starting bacterial concentration of 5×10^5 CFU/mL when added to the dilution plates. The plates are incubated for 16-20 hours at 37° C. The MIC values are read visually as the lowest concentration well with no bacterial growth.
To determine if test compounds were affected by CTX-M15, the most abundant extended spectrum […] in clinical settings worldwide, the inhibition of the growth of an engineered strain of Escherichia coli harboring CTX-M15 was tested. This strain was constructed by cloning the gene encoding CTX-M15 into the NdeI and BamHI restriction endonuclease sites of plasmid pLBII, placing the gene(s) under the control of the Lac promoter. The constructed expression plasmid for CTX-M15 was used to transform competent E. coli DH5α cells to make the engineered strain, including an empty pLBII vector control strain. The classic cell based broth microdilution MIC assay was employed as described above with the addition of control antibiotics, known to be degraded by β-lactamases (Ceftazidime, piperacillin and piperacillin+tazobactam).

[2] = tested on: E. coli ATCC 25922; assay: Broth microdilution MIC, E. coli ATCC 25922; format: cell-based; conditions: Escherichia coli, ATCC25922; E. coli ATCC 25922, broth microdilution; read-out: MIC E. coli 25922
Procedure, shortened: (§2)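 CLSI broth microdilution in cation-supplemented Mueller-Hinton broth; 2-fold compound dilutions inoculated at 5×10^5 CFU/mL from a 3-5 h log-phase culture. Plates incubated 16-20 hours at 37° C; MIC read visually as lowest concentration with no growth.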

[3] = tested on: E. coli AG100; assay: Broth microdilution MIC, E. coli AG100 (wild-type parent); format: cell-based; conditions: Escherichia coli; wild-type parent E. coli AG100, broth microdilution; read-out: MIC E. coli AG100
Procedure, shortened: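 Starting inoculum of 5×10^5 CFU/mL, from colonies grown 3-5 h in Mueller-Hinton broth with divalent cations, added to two-fold compound dilution series.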

[4] = tested on: E. coli 901C; assay: microbe, parasite or virus in culture; format: cell-based; conditions: Escherichia coli; hyper-permeable E. coli 901C, broth microdilution; read-out: MIC E. coli 901C
Procedure, shortened: as §2

[5] = tested on: E. coli AG100A; assay: microbe, parasite or virus in culture; format: cell-based; conditions: Escherichia coli, read-out: MIC E. coli AG100A
Procedure, shortened: as §2

[6] = tested on: E. coli D22; assay: microbe, parasite or virus in culture; format: cell-based; conditions: Escherichia coli; hyper-permeable E. coli D22, broth microdilution; read-out: MIC E. coli D22
Procedure, shortened: as §2

[7] = tested on: K. pneumoniae SI-117; assay: microbe, parasite or virus in culture; format: cell-based; conditions: Klebsiella pneumoniae, SI117, read-out: MIC K. pneumoniae SI-117
Procedure, shortened: as §2

[8] = tested on: K. pneumoniae UMM; assay: microbe, parasite or virus in culture; format: cell-based; conditions: Klebsiella pneumoniae; K. pneumoniae UMM producing SHV-5 and KPC-2; read-out: MIC K. pneumoniae UMM
Procedure, shortened: as §2

[9] = tested on: P. aeruginosa (ΔmexAB-oprM); assay: microbe, parasite or virus in culture; format: cell-based; conditions: Pseudomonas aeruginosa, read-out: MIC P. aeruginosa ΔmexAB-OprM
Procedure, shortened: as §2

[10] = tested on: P. aeruginosa ATCC 35151; assay: microbe, parasite or virus in culture; format: cell-based; conditions: Pseudomonas aeruginosa, ATCC35151; hyper-permeable P. aeruginosa ATCC 35151; read-out: MIC P. aeruginosa ATCC 35151
Procedure, shortened: as §2

[11] = tested on: K. pneumoniae 848844; assay: microbe, parasite or virus in culture; format: cell-based, Klebsiella pneumoniae; conditions: Klebsiella pneumoniae; K. pneumoniae 848844 producing SHV-11 and KPC-2; read-out: MIC K. pneumoniae 848844
Procedure, shortened: as §2

[12] = tested on: P. aeruginosa PAO1; assay: Broth microdilution MIC, P. aeruginosa PAO1; format: cell-based; conditions: Pseudomonas aeruginosa; P. aeruginosa PAO1, broth microdilution; read-out: MIC P. aeruginosa PAO1
Method: (§3) To determine the ability of test compounds to potentiate the inhibition of the growth of bacterial strains, classic cell based broth microdilution minimum inhibitory concentration (MIC) assays were employed. MIC assays are performed according to CLSI methods except where otherwise noted (CLSI, 2011 and CLSI, 2009). The reference type strain E. coli ATCC 25922, the wild-type parent strain E. coli AG100, the hyper-permeable E. coli 901C and E. coli D22 and the E. coli AG100A strain lacking the acrAB efflux pump encoding genes were used to determine the ability of the PBP inhibitors to penetrate the outer membrane of gram-negative bacteria and inhibit bacterial growth. […] The P. aeruginosa PAO1, P. aeruginosa ATCC 27853 and A. baumannii ATCC 19606, along with the hyper-permeable P. aeruginosa ATCC 35151 and an engineered efflux pump-compromised strain of P. aeruginosa (ΔmexAB-oprM) were used to determine the ability of PBP inhibitors to penetrate the outer membrane of P. aeruginosa and A. baumannii and assess antibacterial activity against these important gram-negative organisms.
as §1

[13] = tested on: A. baumannii ATCC 19606; assay: Broth microdilution MIC, A. baumannii ATCC 19606; format: cell-based; conditions: Acinetobacter baumannii, ATCC19606; A. baumannii ATCC 19606, broth microdilution; read-out: MIC A. baumannii ATCC 19606
Method: as §3, §1

[14] = tested on: N. gonorrhoeae ATCC 49226; assay: Liquid broth MIC, N. gonorrhoeae ATCC 49226; format: cell-based; conditions: Neisseria gonorrhoeae, ATCC49226; N. gonorrhoeae ATCC 49226, liquid broth; read-out: Minimum Inhibitory Concentration, N. gonorrhoeae ATCC 49226
Method: (§4) Additional antibacterial testing of the series was performed in wild-type reference strains of N. gonorrhoeae (ATCC 49226, FA1090, WHO F and FA19). Liquid broth-based assays were used for antibacterial testing of PBP inhibitors in Neisseria gonorrhoeae. Briefly, cryo-preserved bacterial cultures of clinical strains are streaked for isolation on GC Base agar (BD #228950 at 36 g/L autoclaved at 121° C. for 20 minutes to sterilize) with 1% Kellogg's supplement (40 g glucose, 0.5 g glutamine, 0.05 g ferric nitrate and 2 mg cocarboxylase per 100 mL deionized water filter sterilized through 0.2 μm syringe filters). Following incubation at 36° C. and 5% CO2 to allow growth of colonies, strains are aseptically sub-cultured from original agar plate onto 3 agar plates per strain 24 hours before inoculum preparation. 2-fold serial dilutions of test compounds are conducted in a 96 well plate with a final volume of 150 μL per well at 4/3-fold the final desired concentration. For preparation of assay inoculum, a direct suspension is prepared by aseptically swabbing all colonies from sub-cultured agar plates into culture tubes containing 2 mL of fresh GC broth with […]. After the dilution plates are set up, direct suspensions are then diluted in a cuvette containing GC broth (15 g proteose peptone 43, 1 g corn starch, 4 g dipotassium phosphate, 1 g monopotassium phosphate and 5 g sodium chloride per liter of deionized water are mixed on a stir plate for 20 minutes, pH adjusted to 7.2+/−0.2 pH units with 1 N HCl, centrifuged at 10,000×g for 20 minutes to pellet undissolved corn starch and then autoclaved at 121° C. for 20 minutes to sterilize) and the optical density is measured at 600 nm. Inocula are diluted such that 50 μL of this culture in […] results in a starting bacterial concentration of 5×10^5 CFU/mL when added to the dilution plates. The plates are incubated 40-42 hours at 36° C. and 5% CO2. The MIC is read visually as the lowest concentration well with no bacterial growth.

[15] = tested on: N. gonorrhoeae FA1090; assay: Liquid broth MIC, N. gonorrhoeae FA1090; format: cell-based; conditions: Neisseria gonorrhoeae; N. gonorrhoeae FA1090, liquid broth; read-out: Minimum Inhibitory Concentration, N. gonorrhoeae FA1090
Method: as §4

[16] = tested on: N. gonorrhoeae WHO F; assay: Liquid broth MIC, N. gonorrhoeae WHO F; format: cell-based; conditions: Neisseria gonorrhoeae; N. gonorrhoeae WHO F, liquid broth; read-out: Minimum Inhibitory Concentration, N. gonorrhoeae WHO F
Method: as §4

[17] = tested on: N. gonorrhoeae FA19; assay: Liquid broth MIC, N. gonorrhoeae FA19; format: cell-based; conditions: Neisseria gonorrhoeae; N. gonorrhoeae FA19, liquid broth; read-out: Minimum Inhibitory Concentration, N. gonorrhoeae FA19
Method: as §4

| SMILES | MIC [1] [mg/L] | MIC [2] [µg/mL] | MIC [3] [µg/mL] | MIC [4] [µg/mL] | MIC [5] [µg/mL] | MIC [6] [µg/mL] | MIC [7] [µg/mL] | MIC [8] [µg/mL] | MIC [9] [µg/mL] | MIC [10] [µg/mL] | MIC [11] [µg/mL] | MIC [12] [µg/mL] | MIC [13] [µg/mL] | MIC [14] [µg/mL] | MIC [15] [µg/mL] | MIC [16] [µg/mL] | MIC [17] [µg/mL] |
| --- | --- | --- | --- | --- | --- | --- | --- | --- | --- | --- | --- | --- | --- | --- | --- | --- | --- |
| CCN1CCN(C(=O)NCC2(C(=O)N[C@H]3Cc4cccc(C(=O)O)c4OB3O)CNC2)C(=O)C1=O [Example 53, (R)-3-(3-((4-ethyl-2,3-dioxopiperazine-1-carboxamido)methyl)azetidine-3-carboxamido)-2-hydroxy-3,4-dihydro-2H-benzo[e][1,2]oxaborinine-8-carboxylic acid, trifluoroacetic acid salt] | > 512 |  |  |  |  |  |  |  |  |  |  |  |  |  |  |  |  |
| NCCN1CCN(C(=O)N[C@@H](C(=O)N[C@H]2Cc3cccc(C(=O)O)c3OB2O)c2ccc(O)c(O)c2Cl)C(=O)C1=O [Example 220, (R)-3-((R)-2-(4-(2-aminoethyl)-2,3-dioxopiperazine-1-carboxamido)-2-(2-chloro-3,4-dihydroxyphenyl)acetamido)-2-hydroxy-3,4-dihydro-2H-benzo[e][1,2]oxaborinine-8-carboxylic acid] |  | 8 to 16 | 0.5 to 1 | 0.5 to 1 | 0.5 to 1 | 0.5 to 1 | 2 to 4 | 0.5 to 1 | < 0.25 | < 0.25 | 0.5 to 1 | 0.5 to 1 | < 0.25 | 16 to 32 (≈ 27.1 to 54.3 µM) | 4 to 8 (≈ 6.78 to 13.6 µM) | 1 to 2 (≈ 1.7 to 3.39 µM) | > 64 |
